Experimental data taken from US10681909B2, “Herbicidal triazoles” (FMC Corporation, priority 2014, dated 2020).

Columns and labels:
[1] = test system: barnyardgrass; experiment: Test A preemergence; assay type: in vivo, Echinochloa crus-galli; conditions: 0 to 100 scale (0 no effect, 100 complete control)
Method in brief: (§1)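 Test chemicals in a non-phytotoxic solvent with surfactant were applied as a directed soil spray preemergence to seeds sown in loam/sand. Postemergence sprays went to plants 2–10 cm tall at the one- to two-leaf stage. A dash means no result.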

[2] = test system: foxtail, giant; experiment: Test A preemergence; assay type: in vivo, Setaria faberii; conditions: 0 to 100 scale (0 no effect, 100 complete control)
Method in brief: as §1

[3] = test system: pigweed; experiment: Test A preemergence; assay type: in vivo, Amaranthus retroflexus; conditions: 0 to 100 scale (0 no effect, 100 complete control)
Method in brief: as §1

[4] = test system: barnyardgrass; experiment: Test A postemergence; assay type: in vivo, Echinochloa crus-galli; conditions: 0 to 100 scale (0 no effect, 100 complete control), approx. 10 d
Method in brief: as §1

[5] = test system: foxtail, giant; experiment: Test A postemergence; assay type: in vivo, Setaria faberii; conditions: 0 to 100 scale (0 no effect, 100 complete control), approx. 10 d
Method in brief: as §1

[6] = test system: pigweed; experiment: Test A postemergence; assay type: in vivo, Amaranthus retroflexus; conditions: 0 to 100 scale (0 no effect, 100 complete control), approx. 10 d
Method in brief: as §1

[7] = test system: wheat; experiment: Test A postemergence; assay type: in vivo, Triticum aestivum; conditions: 0 to 100 scale (0 no effect, 100 complete control), approx. 10 d
Method in brief: as §1

[8] = test system: corn; experiment: Test A postemergence; assay type: in vivo, Zea mays; conditions: 0 to 100 scale (0 no effect, 100 complete control), approx. 10 d
Method in brief: as §1

[9] = test system: rice; experiment: Test B flooded paddy test; assay type: in vivo, Oryza sativa; conditions: 250 g ai/ha, applied to paddy water at 2-leaf stage, visual rating after 13 to 15 d, scale 0 (no effect) to 100 (complete control)
Method in brief: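 Pots were flooded to 3 cm above the soil at treatment, and compounds were applied directly into the paddy water. That depth was held throughout. After 13 to 15 d in a greenhouse, plants were rated visually against untreated controls.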

[10] = test system: ryegrass, Italian; experiment: Test C postemergence; assay type: in vivo, Lolium multiflorum
Method in brief: (§2)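 Seeds were planted in loam soil plus sand and sprayed preemergence. In parallel, potted plants in a peat-based medium were sprayed postemergence at 2 to 18 cm (1- to 4-leaf stage). Compounds were formulated in non-phytotoxic solvent with surfactant.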

[11] = test system: wheat (winter wheat); experiment: Test C postemergence; assay type: in vivo, Triticum aestivum
Method in brief: as §2

[12] = test system: galium; experiment: Test C postemergence; assay type: in vivo, Galium aparine
Method in brief: as §2

[13] = test system: corn; experiment: Test C postemergence; assay type: in vivo, Zea mays
Method in brief: as §2

[14] = test system: crabgrass, large; experiment: Test C postemergence; assay type: in vivo, Digitaria sanguinalis
Method in brief: as §2

[15] = test system: lambsquarters; experiment: Test C postemergence; assay type: in vivo, Chenopodium album
Method in brief: as §2

[16] = test system: nutsedge, yellow; experiment: Test C postemergence; assay type: in vivo, Cyperus esculentus
Method in brief: as §2

[17] = test system: pigweed; experiment: Test C postemergence; assay type: in vivo, Amaranthus retroflexus
Method in brief: as §2

[18] = test system: soybean; experiment: Test C postemergence; assay type: in vivo, Glycine max
Method in brief: as §2

[19] = test system: oilseed rape; experiment: Test C postemergence; assay type: in vivo, Brassica napus
Method in brief: as §2

[20] = test system: waterhemp; experiment: Test C postemergence; assay type: in vivo, Amaranthus rudis
Method in brief: as §2

[21] = test system: velvetleaf; experiment: Test C postemergence; assay type: in vivo, Abutilon theophrasti
Method in brief: as §2

## CCCOc1nc(-c2ccccc2)nn1Cc1ccnc(C(F)(F)F)c1 [Compound 33]
[1]; 125 g ai/ha
  Plant response rating, Barnyardgrass: 50
[1]; 500 g ai/ha, approx. 10 d
  Plant response rating, Barnyardgrass: 80
[2]; 125 g ai/ha
  Plant response rating, Foxtail, Giant: 90
[2]; 500 g ai/ha, approx. 10 d
  Plant response rating, Foxtail, Giant: 100
[3]; 125 g ai/ha
  Plant response rating, Pigweed: 90
[3]; 500 g ai/ha, approx. 10 d
  Plant response rating, Pigweed: 90
[4]; 125 g ai/ha
  Plant response rating, Barnyardgrass: 20
[4]; 500 g ai/ha
  Plant response rating, Barnyardgrass: 50
[5]; 125 g ai/ha
  Plant response rating, Foxtail, Giant: 40
[5]; 500 g ai/ha
  Plant response rating, Foxtail, Giant: 90
[6]; 125 g ai/ha
  Plant response rating, Pigweed: 100
[6]; 500 g ai/ha
  Plant response rating, Pigweed: 100
[7]; 125 g ai/ha
  Plant response rating, Wheat: 0
[7]; 500 g ai/ha
  Plant response rating, Wheat: 30
[8]; 125 g ai/ha
  Plant response rating, Corn: 20
[8]; 500 g ai/ha
  Plant response rating, Corn: 30
[9]
  Plant response rating, Rice, Flood: 0
[10]; 31 g ai/ha
  Plant response rating (scale of 0 to 100 where 0 is no effect and 100 is complete control): 0
[10]; 62 g ai/ha
  Plant response rating (scale of 0 to 100 where 0 is no effect and 100 is complete control): 5
[10]; 125 g ai/ha
  Plant response rating (scale of 0 to 100 where 0 is no effect and 100 is complete control): 5
[10]; 250 g ai/ha
  Plant response rating (scale of 0 to 100 where 0 is no effect and 100 is complete control): 15
[11]; 31 g ai/ha
  Plant response rating (scale of 0 to 100 where 0 is no effect and 100 is complete control): 5
[11]; 62 g ai/ha
  Plant response rating (scale of 0 to 100 where 0 is no effect and 100 is complete control): 5
[11]; 125 g ai/ha
  Plant response rating (scale of 0 to 100 where 0 is no effect and 100 is complete control): 5
[11]; 250 g ai/ha
  Plant response rating (scale of 0 to 100 where 0 is no effect and 100 is complete control): 5
[12]; 31 g ai/ha
  Plant response rating (scale of 0 to 100 where 0 is no effect and 100 is complete control): 55
[12]; 62 g ai/ha
  Plant response rating (scale of 0 to 100 where 0 is no effect and 100 is complete control): 60
[12]; 125 g ai/ha
  Plant response rating (scale of 0 to 100 where 0 is no effect and 100 is complete control): 75
[12]; 250 g ai/ha
  Plant response rating (scale of 0 to 100 where 0 is no effect and 100 is complete control): 80
[13]; 31 g ai/ha
  Plant response rating (scale of 0 to 100 where 0 is no effect and 100 is complete control): 25
[13]; 62 g ai/ha
  Plant response rating (scale of 0 to 100 where 0 is no effect and 100 is complete control): 30
[13]; 125 g ai/ha
  Plant response rating (scale of 0 to 100 where 0 is no effect and 100 is complete control): 25
[13]; 250 g ai/ha
  Plant response rating (scale of 0 to 100 where 0 is no effect and 100 is complete control): 25
[14]; 31 g ai/ha
  Plant response rating (scale of 0 to 100 where 0 is no effect and 100 is complete control): 5
[14]; 62 g ai/ha
  Plant response rating (scale of 0 to 100 where 0 is no effect and 100 is complete control): 10
[14]; 125 g ai/ha
  Plant response rating (scale of 0 to 100 where 0 is no effect and 100 is complete control): 10
[14]; 250 g ai/ha
  Plant response rating (scale of 0 to 100 where 0 is no effect and 100 is complete control): 15
[15]; 31 g ai/ha
  Plant response rating (scale of 0 to 100 where 0 is no effect and 100 is complete control): 80
[15]; 62 g ai/ha
  Plant response rating (scale of 0 to 100 where 0 is no effect and 100 is complete control): 85
[15]; 125 g ai/ha
  Plant response rating (scale of 0 to 100 where 0 is no effect and 100 is complete control): 85
[15]; 250 g ai/ha
  Plant response rating (scale of 0 to 100 where 0 is no effect and 100 is complete control): 90
[16]; 31 g ai/ha
  Plant response rating (scale of 0 to 100 where 0 is no effect and 100 is complete control): 5
[16]; 62 g ai/ha
  Plant response rating (scale of 0 to 100 where 0 is no effect and 100 is complete control): 10
[16]; 125 g ai/ha
  Plant response rating (scale of 0 to 100 where 0 is no effect and 100 is complete control): 10
[16]; 250 g ai/ha
  Plant response rating (scale of 0 to 100 where 0 is no effect and 100 is complete control): 15
[17]; 31 g ai/ha
  Plant response rating (scale of 0 to 100 where 0 is no effect and 100 is complete control): 95
[17]; 62 g ai/ha
  Plant response rating (scale of 0 to 100 where 0 is no effect and 100 is complete control): 90
[17]; 125 g ai/ha
  Plant response rating (scale of 0 to 100 where 0 is no effect and 100 is complete control): 98
[17]; 250 g ai/ha
  Plant response rating (scale of 0 to 100 where 0 is no effect and 100 is complete control): 98
[18]; 31 g ai/ha
  Plant response rating (scale of 0 to 100 where 0 is no effect and 100 is complete control): 25
[18]; 62 g ai/ha
  Plant response rating (scale of 0 to 100 where 0 is no effect and 100 is complete control): 35
[18]; 125 g ai/ha
  Plant response rating (scale of 0 to 100 where 0 is no effect and 100 is complete control): 55
[18]; 250 g ai/ha
  Plant response rating (scale of 0 to 100 where 0 is no effect and 100 is complete control): 65
[19]; Oilsee Rape, 250 g ai/ha
  Plant response rating (scale of 0 to 100 where 0 is no effect and 100 is complete control): 60
[19]; Oilseed Rape, 31 g ai/ha
  Plant response rating (scale of 0 to 100 where 0 is no effect and 100 is complete control): 40
[19]; Oilseed Rape, 62 g ai/ha
  Plant response rating (scale of 0 to 100 where 0 is no effect and 100 is complete control): 55
[19]; Oilseed Rape, 125 g ai/ha
  Plant response rating (scale of 0 to 100 where 0 is no effect and 100 is complete control): 80
[20]; 31 g ai/ha
  Plant response rating (scale of 0 to 100 where 0 is no effect and 100 is complete control): 80
[20]; 62 g ai/ha
  Plant response rating (scale of 0 to 100 where 0 is no effect and 100 is complete control): 95
[20]; 125 g ai/ha
  Plant response rating (scale of 0 to 100 where 0 is no effect and 100 is complete control): 95
[20]; 250 g ai/ha
  Plant response rating (scale of 0 to 100 where 0 is no effect and 100 is complete control): 95
[21]; 31 g ai/ha
  Plant response rating (scale of 0 to 100 where 0 is no effect and 100 is complete control): 15
[21]; 62 g ai/ha
  Plant response rating (scale of 0 to 100 where 0 is no effect and 100 is complete control): 15
[21]; 125 g ai/ha
  Plant response rating (scale of 0 to 100 where 0 is no effect and 100 is complete control): 10
[21]; 250 g ai/ha
  Plant response rating (scale of 0 to 100 where 0 is no effect and 100 is complete control): 40
